Earlier results, collected in patent publication US20260374745A1, “METHODS FOR PRODUCING AROMATIC THIAZINES OR SELENAZINES” (Universität Heidelberg, priority 2023, published 2026).

Experiments:
[1] = tested on: 3-deoxy-d-manno-octulosonic acid 8-phosphate (KDO 8-P) synthase; settings: role: inhibitor; Birck et al., J. Am. Chem. Soc. 2000, 122, 9334-9335
HIV = settings: Mizuhara et al., Org. Biomol. Chem. 2012, 10, 6792-6802

**Q.** Which “3-deoxy-d-manno-octulosonic acid 8-phosphate (KDO 8-P) synthase inhibitor” value [1] does the source give for N=C1Sc2ccccc2C2=NCCCN12 [PD 404182] here?
**A.** The value was “inhibitor”.

**Q.** What about the anti-HIV activities (HIV) of the same compound?
**A.** The anti-HIV activities was “potent”.
